# Laboratory results reported in patent publication US5373089A, “Oxytocin antagonist” (Northwestern University, priority 1993, dated 1994).
# Starred links: 1 amine or outer side, 2 acyl side, 3 side chain; linkers in the order of their positions; H or OH if unused. Positions of bridges follow the written chain, without caps; N, C: chain ends. Non-standard residues stand in square brackets, D forms with d. Residues, ends and D or L forms follow the SMILES beside them. X1 = O=C(CC1(S[*:2])CCCCC1)[*:1]; Pen = CC(C)(S)[C@H](N)C(=O)O; Orn = NCCC[C@H](N)C(=O)O; Mpa = O=C(O)CCS
# Experiments:
# oxytocin = conditions: reported in the cited literature; cited from earlier work
# ADH = ADH bioassay (alteration in urine output due to ADH); format: in vivo; conditions: in vivo
# Protocol: The above compound was also tested for antagonism to vasopressin. Anti-ADH activity can be determined by measuring the alteration in urine output due to ADH in the presence and absence of the antagonist. A suitable ADH-assay is described in Sawyer, et al., Endocrinology, 63:694 (1958). […] The ratio of oxytocin antagonism to ADH antagonism was very high, viz. over 1, 866, as compared with 200 for the compositions disclosed in the parent applications.
# The anti-ADH activity is measured by the alteration in urine […] in the presence and absence of the antagonist to determine the specificity of the antagonist. The anti-ADH assay is described in Sawyer, et al., Endocrinology, 63:694 (1958).
# ESTROUS RAT UTERUS = assay: Oxytocic bioassay (isolated rat uterus, integrated contraction response to oxytocin); format: cell-based
# From the text: The protocol used for the oxytocin bioassay procedure is derived from procedures described in a paper by Sawyer, et al., Endocrinology, 106:81 (1980), which in turn was based on reports of Munsick, Brit. J. Pharmacol., 3:328 (1960), and Holton, Brit. J. Pharmacol., 3:328 (1948). The assay calculations for the pA2 estimates are described by Schild, British J. Pharmacology, 2:189 (1947). The major difference in the present procedure from those reported by others in the field is that the area under the contraction is integrated where most other techniques calculate the amplitude. Integration provides much more consistent and reliable results although the pA2 estimates are approximately an order of magnitude lower than those reported using amplitude of the contraction as the endpoint.
# 1. Animals--a 1.5 cm piece of uterus from a virgin rat (Holtzman) in natural estrus is used for the assay.
# 2. Buffer/Assay Bath--The buffer used is Munsicks. […] The buffer is gassed continuously with 95% oxygen; 5% carbon dioxide giving a pH of 7.4. The temperature of the assay bath is 37° C. A 10 ml assay bath is used that contains a water jacket for maintaining the temperature and inlet and outlet spikets for adding and removing buffer.
# 3. Polygraph/transducer--The piece of uterine tissue used for the assay is anchored at one end and connected to a Statham Strain Gauge Force Transducer at the other end which in turn is attached to a Grass Polygraph Model 79 for monitoring the contractions.
# 4. Assay Protocol. (a) The tissue is equilibrated in the assay bath for one hour with washing with new buffer every fifteen minutes. One gram of tension is kept on the tissue at all times.
# (b) The tissue is stimulated initially with oxytocin at 10 nM to "acclimate" the tissue and with […] KCl to determine the maximum contractile response.
# (d) The tissue is exposed to oxytocin (Calbiochemical, San Diego, Calif.) for one minute and washed out. There is a three minute interval before addition of the next dose of the agonist or antagonist. When the antagonist is tested, it is given five minutes before the agonist. The agonist is given for one minute. All responses are integrated using a 7P10 Grass Integrator. This is the major difference between the present protocol and others in the literature which usually measure amplitude of the contractions as the response. A single concentration of oxytocin, equal to 80% of the maximum response, is used to test the antagonist. […] This is repeated three times for each dose of antagonist for a three point assay.
# (e) Calculations for pA2 : The dose-response (DR) ratios are calculated for antagonist and a Schild's Plot is performed by plotting the Log (DR-1) vs. Log of antagonist concentration. The line plotted is calculated by least squares regression analysis. The pA2 is the concentration of antagonist at the point where the regression line crosses the 0 point of the Log (DR-1) ordinate. The pA2 is the negative Log of the concentration of antagonist that will reduce the response to the agonist by one-half.
# The protocol used for the oxytocin bioassay procedure is derived from procedures described in a paper by Sawyer, et al., Endocrinology, 106:81 (1980), which in turn was based on reports of Munsick, Brit. J. Pharmacol., 3:328 (1960), and Holton, Brit. J. Pharmacol., 3:328 (1948). The assay calculations for the pA2 estimates are described by Schild, Brit. J. Pharmacol. (1947). The major difference in procedure from those previously reported was the integration of the area under the contraction instead of merely calculating the amplitude. Integration provides more consistent and reliable results, although the pA2 estimates are about an order of magnitude lower than those reported using amplitude of the contraction as the endpoint.
# A 1.5 cm piece of uterus from a virgin rat (Holtzman) in natural estrus is used for the assay.
# The buffer used is Munsick's. […]
# RAT OXYTOCIN RECEPTOR = target: T1, RAT OXYTOCIN RECEPTOR (Rattus norvegicus, UniProt P70536); assay: Oxytocin receptor assay, pregnant rat uterus (P21) membranes, 3H-OT competition; format: binding
# T1 construct: from tissue; host or cells: uterus of day-21 pregnant Holtzman rats, sucrose-gradient membrane fraction
# T1 sequence (P70536 1-388): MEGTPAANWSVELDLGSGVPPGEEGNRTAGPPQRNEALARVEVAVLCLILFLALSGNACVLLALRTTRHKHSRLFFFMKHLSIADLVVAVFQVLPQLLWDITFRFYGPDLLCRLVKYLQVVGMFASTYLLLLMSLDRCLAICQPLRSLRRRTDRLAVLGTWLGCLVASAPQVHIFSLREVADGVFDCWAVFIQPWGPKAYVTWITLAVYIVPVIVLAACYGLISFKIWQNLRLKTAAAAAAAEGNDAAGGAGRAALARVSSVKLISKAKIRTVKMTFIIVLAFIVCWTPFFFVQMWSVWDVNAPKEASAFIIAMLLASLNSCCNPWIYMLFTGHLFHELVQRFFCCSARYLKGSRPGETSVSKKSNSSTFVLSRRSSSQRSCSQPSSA
# Protocol: Uterine tissue was removed on day 21 of pregnancy (delivery=Days 211/2 to 221/2) from Holtzman rats. The tissue was emptied of its contents, rinsed in ice cold buffer, cut into small pieces and frozen at -70° C. until homogenization.
# (§1) Oxytocin receptors (OTrs) reside on the cell membrane and are present at high concentrations at the end of pregnancy in uterine tissue. Frozen tissue is homogenized in Tris buffer, the homogenate filtered, and the filtrate centrifuged at 1000 g for 15 minutes at 4° C. The supernatant is centrifuged at 40,000 g for 30 minutes and the pellet containing the cell membranes resuspended in 10% sucrose. Density gradient ultracentrifugation is then performed by placing the 10 % sucrose suspension on top of 35% sucrose and centrifuging for 30 minutes in a swing bucket rotor at 105,000 g. The membranes at the interface of the 10%/35% sucrose are removed and resuspended in Tris buffer containing EDTA for 30 minutes. This procedure removes divalent cation and results in dissociation of any endogenously bound OT to the receptor. This mixture is then centrifuged for 15 minutes at 100,000 g and the pellet containing the membrane OTrs resuspended in Tris, PMSF, Mg^++, buffer by sonication.
# (§2) The binding assay consist of 0.1 ml of 20,000 cmp of tritium labeled OT (New England Nuclear, […]), 0.1 ml of OT antagonist added at increasing concentration, 0.25 ml of buffer and 0.05 ml of membrane (70-150 ug protein). A nonspecific tube has 100× of cold OTA added to it. The incubation is for 30 minutes at 30 ° C. The membrane is pelleted by centrifugation in ultraclear mini tubes (5×41 mm) for 30 minutes at 105,000 g. The resulting pellet containing the bound ^3 H-OT is dissolved in 0.1N NaOH at 45 ° C. for 30 minutes and this mixture is then placed in liquid scintillation counting fluid and counted for dpms in a scintillation counter.
# (§3) The data is analyzed by nonlinear curve fitting methods using McPherson's EBDA (J Pharmacol Methods 14:213-228, 1985) and Munson and Rodbard's LIGAND (Anal Biochem 107:220-239, 1980) program for saturation and competition analysis for determining Kds and Kis.
# HUMAN OXYTOCIN RECEPTOR = target: T2, HUMAN OXYTOCIN RECEPTOR (Homo sapiens, UniProt P30559); assay: Oxytocin receptor assay, human myometrial tissue membranes, 3H-OT competition; format: binding
# T2 construct: Oxytocin receptors (OTrs) reside on the cell membrane and are present at high concentrations at the end of pregnancy in uterine tissue; from tissue; host or cells: human myometrium from cesarean section patients, sucrose-gradient membrane fraction
# T2 sequence (P30559 1-389): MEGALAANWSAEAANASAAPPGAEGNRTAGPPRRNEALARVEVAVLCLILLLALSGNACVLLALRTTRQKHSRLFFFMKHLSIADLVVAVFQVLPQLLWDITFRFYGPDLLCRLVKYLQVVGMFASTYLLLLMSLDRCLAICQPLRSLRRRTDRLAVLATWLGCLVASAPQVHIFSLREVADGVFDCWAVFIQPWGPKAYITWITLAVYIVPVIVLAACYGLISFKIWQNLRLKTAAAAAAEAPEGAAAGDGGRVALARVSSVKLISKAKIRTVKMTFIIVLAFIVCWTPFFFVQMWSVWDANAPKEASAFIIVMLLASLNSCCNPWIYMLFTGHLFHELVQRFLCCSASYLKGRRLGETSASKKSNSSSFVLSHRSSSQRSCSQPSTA
# Protocol: Human myometrial tissue was collected from patients at the time of cesarian section after informed consent. The tissue was rinsed in cold buffer, cut into small pieces and frozen at -70° C. until homogenization.
# as §1, §2, §3
compound,measurement,setting,value
"1-deamino, ethyloxytocin","pA2 (anti-oxytocic, literature)",oxytocin,7.2
"1deamino[D-Tyr(OEt)^2, Thr^4, Orn^8 ] vasopressin","pA2 (anti-oxytocic, literature)",oxytocin,8.3
"CC[C@H](C)[C@@H]1NC(=O)[C@H](Cc2ccccc2)NC(=O)[C@@H](Cc2ccccc2)NC(=O)CC2(CCCCC2)SSC[C@@H](C(=O)N2CCC[C@H]2C(=O)N[C@@H](CCCNC(=N)N)C(=O)NCC(N)=O)NC(=O)[C@H](CC(N)=O)NC1=O [Compound A, [Pmp^1,D-Phe^2,Phe^3,Ile^4,Arg^8] oxytocin, reference compound] ([dF]FINCPRG-NH2; linker N-5 via X1)",ADH Bioassay pA2,ADH,7.66
same,Oxytocic Bioassay pA2,"ESTROUS RAT UTERUS; virgin rat uterus in natural estrus, Munsick's buffer 0.5 mM Mg++, integrated contraction area",7.35
"CC[C@H](C)[C@@H]1NC(=O)[C@@H](Cc2c[nH]c3ccccc23)NC(=O)CC2(CCCCC2)SSC(C)(C)[C@@H](C(=O)N2CCC[C@H]2C(=O)N[C@@H](CCCNC(=N)N)C(=O)NCC(N)=O)NC(=O)[C@H](CC(N)=O)NC(=O)[C@H](CCC(N)=O)NC1=O [Compound C2, [Pmp^1, DTrp^2, Pen^6, Arg^8] oxytocin] ([dW]IQN[Pen]PRG-NH2; linker N-5 via X1)",Kd,RAT OXYTOCIN RECEPTOR,0.00087 µM
"CC[C@H](C)[C@@H]1NC(=O)[C@@H](Cc2c[nH]c3ccccc23)NC(=O)CC2(CCCCC2)SSC[C@@H](C(=O)N2CCC[C@H]2C(=O)N[C@@H](CCCNC(=N)N)C(=O)NCC(N)=O)NC(=O)[C@H](CC(N)=O)NC(=O)[C@H](CCC(N)=O)NC1=O [Compound C, [Pmp^1, D-Trp^2, Arg^8] oxytocin] ([dW]IQNCPRG-NH2; linker N-5 via X1)",Kd,RAT OXYTOCIN RECEPTOR,0.00493 µM
same,ADH Bioassay pA2,ADH,5.51
same,Kd,HUMAN OXYTOCIN RECEPTOR,0.00549 µM
"CCOc1ccc(C[C@H]2NC(=O)CCSSC[C@@H](C(=O)N3CCC[C@H]3C(=O)N[C@@H](CCCN)C(=O)NCC(N)=O)NC(=O)[C@H](CC(N)=O)NC(=O)[C@H]([C@@H](C)O)NC(=O)[C@H]([C@@H](C)CC)NC2=O)cc1 [E, [Mpa^1,DTyr(Et)^2,Thr^4, Orn^8] oxytocin, reference compound] ([Mpa][dY](Et)ITNCP[Orn]G-NH2; disulfide 1-6)",Kd,RAT OXYTOCIN RECEPTOR,0.0196 µM
same,rOTr (OTA/ANTI),"RAT OXYTOCIN RECEPTOR; ratio of binding affinity to ANTAG I, rat oxytocin receptor",0.4
same,Kd,HUMAN OXYTOCIN RECEPTOR,0.0189 µM
same,hOTR (OTA/ANTI),"HUMAN OXYTOCIN RECEPTOR; ratio of binding affinity to ANTAG I, human oxytocin receptor",1.0
same,OXYTOCIC BIOASSAY ED50,"ESTROUS RAT UTERUS; estrous rat uterus, Table 3",0.10233 µM
same,BIOASSAY ED50,"ESTROUS RAT UTERUS; estrous rat uterus, Table 4",0.1023 µM
same,BIOASSAY (ANTI/OTA),"ESTROUS RAT UTERUS; ratio to ANTAG I, rat oxytocic bioassay",0.3
"(1-deaminopenicillamine, 2-0-methyltyrosine) oxytocin","pA2 (anti-oxytocic, literature)",oxytocin,7.8
